From patent US20250282735A1, “BICYCLE COMPOUNDS AS TEAD INHIBITOR” (DONG-A ST CO., LTD., priority 2022, published 2025)

Legend:
[1] = system: TEAD reporter-containing human breast cancer cell line MCF7; experiment: TEAD reporter (luciferase) assay; type: cell-based; conditions: TEAD reporter MCF7 cells, 24 hours treatment, 1% serum media
Protocol: The TEAD reporter-containing human breast cancer cell line MCF7 (60618, BPS bioscience) was cultured according to the manufacturer's instructions. Cells were plated in 96-well white plates at a density of 30,000 per well and incubated overnight. The following day cells were treated with small molecules in 1% serum media (0.1% v/v DMSO). After 24 hours of the treatment, cell viability was evaluated by using CCK-8 reagent (CK04, Dojindo) and measuring absorbance at 450 nm. Then, the assay for luciferase activity was performed using Dual-Glo® Luciferase Assay System (Promega, E2940) following the manufacturer's instructions. Luminescence intensity was measured and the potency of the compounds was determined by IC50 value generated from non-linear regression analysis of the dose-response curves.
IC50 for luciferase activity are shown in the Table 1 below and designated within the following ranges. [+++: ≤0.1 μM, ++: >0.1 μM to ≤1 μM, +: >1 μM to ≤10 μM, −: >10 μM]

MSTO-211H cells = experiment: Proliferation assay (EdU incorporation), MSTO-211H; type: cell-based; conditions: Homo sapiens, 72 h, YAP-driven MSTO-211H (LATS1 mutation), 3 days with inhibitor, 1% serum
Protocol: The anti-proliferative activity of TEAD inhibitors was evaluated in cells with different properties for YAP; “YAP-driven” cells (MSTO-211H, NCI-H226) in which YAP located in the nucleus and “YAP-independent” cells (OCM1, NCI-H28) where YAP located in the cytoplasm. […] TEAD inhibitors were evaluated with cell lines with these YAP profiling and mutational status.
The next day, replace it with cell starvation medium containing 1% serum. After one day of growth in the starvation medium, the cells were incubated for 3 days with TEAD inhibitors in a concentration range of 0.01-10 μM. After 3 days, EdU (Invitrogen) at a concentration of 10 µM was added to the starvation medium and incubated for an additional 24 hours. After removing the starvation medium remaining in each well, wash the wells with PBS. Cells were fixed with 4% paraformaldehyde (Electron microscopy sciences) at room temperature for 20 minutes. After removing the fix solution remaining in each well, wash the wells with PBS and the cells were permeabilized for 40 minutes by adding 0.5% triton X-100 (Sigma Aldrich). After removing the permeabilization solution remaining in each well, the EdU labeling was performed according to the instructions of the manufacturer's instructions (Click-iT™ Cell Reaction Buffer Kit, Invitrogen). After the Click reaction for EdU labeling, nuclei were stained with […] (Thermo Scientific) for total cell count analysis. After plate preparation for detection, Image acquisition was performed using the ImageXpress Micro XLS. The acquired images were analyzed using MetaXpress software (molecular devices). Through this experimental method, it was possible to confirm the inhibitory activity of TEAD inhibitors by detection EdU incorporated into proliferating cells.
IC50 for cell proliferation inhibition activity are shown in the Table 2 below and designated within the following ranges. [+++: ≤0.1 μM, ++: >0.1 μM to ≤1 μM, +: >1 μM to ≤10μ, −: >10 μM]

With `[2H]C([2H])([2H])n1cc(/C=C/c2ccc(Cl)cc2)c2cc(NC(=O)C=C)cnc21` [Example 121, (E)-N-(3-(4-Chlorostyryl)-1-(methyl-d3)-1H-pyrrolo[2,3-b]pyridin-5-yl)acrylamide] as the molecule, how does the IC50 [1] read?
The IC50 was 100 to 1000 nM.

And the IC50 (MSTO-211H cells)?
Its IC50 is ≤ 100 nM.

For `C=CC(=O)Nc1cnc2c(c1)c(-c1cccc(OCc3cccc(Cl)c3)c1)cn2C` [Compound 52, N-(3-(3-((3-Chlorobenzyl)oxy)phenyl)-1-methyl-1H-pyrrolo[2,3-b]pyridin-5-yl)acrylamide], which IC50 (MSTO-211H cells) is on record?
Its IC50 is 100 to 1000 nM.

With `C=CC(=O)Nc1ccc2c(c1)c(/C=C/c1ccc(Cl)cc1)c(C)n2C` [Compound 14, (E)-N-(3-(4-Chlorostyryl)-1,2-dimethyl-1H-indol-5-yl)acrylamide] as the molecule, how does the IC50 (MSTO-211H cells) read?
Its IC50 is 100 to 1000 nM.

With `C=CC(=O)Nc1cnc2c(c1)c(/C=C/c1ccc(F)c(F)c1)cn2C` [Compound 44, (E)-N-(3-(3,4-Difluorostyryl)-1-methyl-1H-pyrrolo[2,3-b]pyridin-5-yl)acrylamide] as the molecule, how does the IC50 (MSTO-211H cells) read?
The IC50 was ≤ 100 nM.

Which IC50 [1] does the source give for `C=CC(=O)Nc1cnc2c(c1)c(/C=C/c1ccc(Cl)cc1)nn2CC` [Compound 33, (E)-N-(3-(4-Chlorostyryl)-1-ethyl-1H-pyrazolo[3,4-b]pyridin-5-yl)acrylamide] here?
The IC50 was 1000 to 10000 nM.

And the IC50 (MSTO-211H cells)?
The IC50 was ≤ 100 nM.

For `C=CC(=O)Nc1cnc2c(c1)c(/C=C/c1ccc(OC)c(F)c1)cn2C` [Compound 42, (E)-N-(3-(3-Fluoro-4-methoxystyryl)-1-methyl-1H-pyrrolo[2,3-b]pyridin-5-yl)acrylamide], which IC50 (MSTO-211H cells) is on record?
The IC50 was 100 to 1000 nM.

With `C=CC(=O)Nc1cnc2c(c1)c(-c1cccc(N3CCCCC3)c1)cn2C` [Example 88, N-(1-Methyl-3-(3-(piperidin-1-yl)phenyl)-1H-pyrrolo[2,3-b]pyridin-5-yl)acrylamide] as the molecule, how does the IC50 (MSTO-211H cells) read?
The IC50 was 100 to 1000 nM.

`C=C(F)C(=O)Nc1cnc2c(c1)c(/C=C/c1ccc(Cl)cc1)cn2C` [Example 118, (E)-N-(3-(4-Chlorostyryl)-1-methyl-1H-pyrrolo[2,3-b]pyridin-5-yl)-2-fluoroacrylamide] was tested. Which IC50 [1] did it give?
Its IC50 is 1000 to 10000 nM.

And the IC50 (MSTO-211H cells)?
The IC50 was ≤ 100 nM.

For `C=CC(=O)Nc1cnc2c(c1)c(/C=C/c1ccc(C(C)C)cc1)cn2C` [Compound 43, (E)-N-(3-(4-Isopropylstyryl)-1-methyl-1H-pyrrolo[2,3-b]pyridin-5-yl)acrylamide], which IC50 (MSTO-211H cells) is on record?
Its IC50 is 100 to 1000 nM.

How did the IC50 (MSTO-211H cells) turn out when `C=CC(=O)N(Cc1ccccc1)c1cnc2c(c1)c(/C=C/c1ccc(Cl)cc1)cn2C` [Example 67, (E)-N-Benzyl-N-(3-(4-chlorostyryl)-1-methyl-1H-pyrrolo[2,3-b]pyridin-5-yl)acrylamide] was run?
Its IC50 is 1000 to 10000 nM.

How did the IC50 (MSTO-211H cells) turn out when `C=CC(=O)N(C)c1cnc2c(c1)c(/C=C/C1CCC(F)(F)CC1)cn2C` [Example 66, (E)-N-(3-(2-(4,4-Difluorocyclohexyl)vinyl)-1-methyl-1H-pyrrolo[2,3-b]pyridin-5-yl)-N-methylacrylamide] was run?
The IC50 was 100 to 1000 nM.

How did the IC50 (MSTO-211H cells) turn out when `C=CC(=O)Nc1cnc2ccn(CC3CCCCC3)c2c1` [Example 77, N-(1-(Cyclohexylmethyl)-1H-pyrrolo[3,2-b]pyridin-6-yl)acrylamide] was run?
The IC50 was 100 to 1000 nM.

`C=CC(=O)N(Cc1ccncc1)c1cnc2c(c1)c(/C=C/c1ccc(Cl)cc1)cn2C` [Example 68, (E)-N-(3-(4-Chlorostyryl)-1-methyl-1H-pyrrolo[2,3-b]pyridin-5-yl)-N-(pyridin-4-ylmethyl)acrylamide] was tested. Which IC50 (MSTO-211H cells) did it give?
The IC50 was 1000 to 10000 nM.

With `C=CC(=O)Nc1cnc2c(c1)c(/C=C/c1ccc(C(F)(F)F)cc1)cn2C` [Compound 46, (E)-N-(1-Methyl-3-(4-(trifluoromethyl)styryl)-1H-pyrrolo[2,3-b]pyridin-5-yl)acrylamide] as the molecule, how does the IC50 (MSTO-211H cells) read?
Its IC50 is 100 to 1000 nM.

With `C=CC(=O)Nc1ccc2c(/C=C/C3CCC(F)(F)CC3)cn(C)c2c1` [Compound 13, (E)-N-(3-(2-(4,4-Difluorocyclohexyl)vinyl)-1-methyl-1H-indol-6-yl)acrylamide] as the molecule, how does the IC50 (MSTO-211H cells) read?
The IC50 was 1000 to 10000 nM.

With `C=CC(=O)Nc1cnc2c(c1)c(-c1ccc(C)cc1)cn2C` [Example 104, N-(1-Methyl-3-(p-tolyl)-1H-pyrrolo[2,3-b]pyridin-5-yl)acrylamide] as the molecule, how does the IC50 (MSTO-211H cells) read?
The IC50 was 100 to 1000 nM.

`C=CC(=O)Nc1cnc2c(c1)c(/C=C/c1cccc(Cl)c1)cn2C` [Compound 41, (E)-N-(3-(3-Chlorostyryl)-1-methyl-1H-pyrrolo[2,3-b]pyridin-5-yl)acrylamide] was tested. Which IC50 (MSTO-211H cells) did it give?
The IC50 was ≤ 100 nM.

With `C=CC(=O)Nc1cnc2c(c1)c(-c1ccc(C(F)(F)F)cc1)cn2C(F)F` [Example 129, N-(1-(Difluoromethyl)-3-(4-(trifluoromethyl)phenyl)-1H-pyrrolo[2,3-b]pyridin-5-yl)acrylamide] as the molecule, how does the IC50 (MSTO-211H cells) read?
The IC50 was 100 to 1000 nM.

How did the IC50 (MSTO-211H cells) turn out when `C=CC(=O)Nc1cnc2c(c1)c(/C=C/C1CCCCC1)cn2C` [Compound 49, (E)-N-(3-(2-Cyclohexylvinyl)-1-methyl-1H-pyrrolo[2,3-b]pyridin-5-yl)acrylamide] was run?
The IC50 was ≤ 100 nM.

How did the IC50 (MSTO-211H cells) turn out when `C=CC(=O)Nc1cnc2c(c1)c(-c1ccc(F)cc1)cn2C` [Example 103, N-(3-(4-Fluorophenyl)-1-methyl-1H-pyrrolo[2,3-b]pyridin-5-yl)acrylamide] was run?
Its IC50 is 100 to 1000 nM.

How did the IC50 [1] turn out when `C=CC(=O)Nc1cnc2c(c1)c(-c1ccc(N3CCCCC3)cc1)cn2C` [Example 102, N-(1-Methyl-3-(4-(piperidin-1-yl)phenyl)-1H-pyrrolo[2,3-b]pyridin-5-yl)acrylamide] was run?
The IC50 was 1000 to 10000 nM.

How did the IC50 (MSTO-211H cells) turn out when `C=CC(=O)Nc1cnc2c(c1)c(-c1ccc(C(F)(F)F)cc1)cn2C(C)C` [Example 96, N-(1-isopropyl-3-(4-(trifluoromethyl)phenyl)-1H-pyrrolo[2,3-b]pyridin-5-yl)acrylamide] was run?
Its IC50 is 100 to 1000 nM.

`C=CC(=O)Nc1cnc2ccn(Cc3ccc(F)cc3)c2c1` [Example 78, N-(1-(4-Fluorobenzyl)-1H-pyrrolo[3,2-b]pyridin-6-yl)acrylamide] was tested. Which IC50 [1] did it give?
Its IC50 is 100 to 1000 nM.

Which IC50 [1] does the source give for `C=CC(=O)Nc1ccc2c(c1)c(/C=C/c1ccc(Cl)cc1)nn2C1CCCC1` [Compound 8, (E)-N-(3-(4-Chlorostyryl)-1-cyclopentyl-1H-indazol-5-yl)acrylamide] here?
The IC50 was 1000 to 10000 nM.

`C=CC(=O)Nc1cnc2c(c1)c(/C=C/c1cccc(OC)c1)cn2C` [Compound 48, (E)-N-(3-(3-Methoxystyryl)-1-methyl-1H-pyrrolo[2,3-b]pyridin-5-yl)acrylamide] was tested. Which IC50 [1] did it give?
The IC50 was 1000 to 10000 nM.

How did the IC50 [1] turn out when `C=CC(=O)Nc1cnc2c(c1)c(-c1cccc(C#N)c1)cn2C` [Compound 56, N-(3-(3-Cyanophenyl)-1-methyl-1H-pyrrolo[2,3-b]pyridin-5-yl)acrylamide] was run?
Its IC50 is 1000 to 10000 nM.

With `C=CC(=O)Nc1ccc2c(/C=C/c3ccc(Cl)cc3)cn(C)c2c1` [Compound 12, (E)-N-(3-(4-Chlorostyryl)-1-methyl-1H-indol-6-yl)acrylamide] as the molecule, how does the IC50 [1] read?
The IC50 was 100 to 1000 nM.

Which IC50 [1] does the source give for `C=CC(=O)Nc1cnc2c(c1)c(/C=C/c1ccccc1)cn2C` [Compound 45, (E)-N-(1-Methyl-3-styryl-1H-pyrrolo[2,3-b]pyridin-5-yl)acrylamide] here?
The IC50 was 100 to 1000 nM.

For `C=CC(=O)Nc1cnc2c(c1)c(-c1ccc(C(F)(F)F)cc1)cn2CC` [Example 95, N-(1-Ethyl-3-(4-(trifluoromethyl)phenyl)-1H-pyrrolo[2,3-b]pyridin-5-yl)acrylamide], which IC50 (MSTO-211H cells) is on record?
Its IC50 is 100 to 1000 nM.

For `C=CC(=O)Nc1cnc2c(c1)c(-c1ccc(F)c(Cl)c1)cn2C(F)F` [Example 135, N-(3-(3-Chloro-4-fluorophenyl)-1-(difluoromethyl)-1H-pyrrolo[2,3-b]pyridin-5-yl)acrylamide], which IC50 [1] is on record?
Its IC50 is 1000 to 10000 nM.

`C=CC(=O)Nc1cnc2c(c1)c(-c1ccc(CCC)cc1)cn2C` [Example 100, N-(1-Methyl-3-(4-propylphenyl)-1H-pyrrolo[2,3-b]pyridin-5-yl)acrylamide] was tested. Which IC50 (MSTO-211H cells) did it give?
The IC50 was ≤ 100 nM.

How did the IC50 [1] turn out when `C=CC(=O)Nc1cnc2c(c1)c(-c1ccc(Cl)c(F)c1)cn2C(F)F` [Example 133, N-(3-(4-Chloro-3-fluorophenyl)-1-(difluoromethyl)-1H-pyrrolo[2,3-b]pyridin-5-yl)acrylamide] was run?
Its IC50 is 1000 to 10000 nM.

For `C=CC(=O)Nc1cnc2c(c1)c(-c1ccc(OC)cc1)cn2C` [Example 90, N-(3-(4-Methoxyphenyl)-1-methyl-1H-pyrrolo[2,3-b]pyridin-5-yl)acrylamide], which IC50 [1] is on record?
The IC50 was 1000 to 10000 nM.

With `C=CC(=O)Nc1cnc2c(c1)c(/C=C/c1cccc(F)c1)cn2C` [Compound 40, (E)-N-(3-(3-Fluorostyryl)-1-methyl-1H-pyrrolo[2,3-b]pyridin-5-yl)acrylamide] as the molecule, how does the IC50 (MSTO-211H cells) read?
Its IC50 is 100 to 1000 nM.

With `C=CC(=O)Nc1cnc2c(c1)c(-c1cccc(Oc3ccccc3)c1)cn2C` [Example 94, N-(1-Methyl-3-(3-phenoxyphenyl)-1H-pyrrolo[2,3-b]pyridin-5-yl)acrylamide] as the molecule, how does the IC50 [1] read?
The IC50 was 100 to 1000 nM.
